Data published in publication PMC8536644, “Enigmatic mechanism of the N-vinylpyrrolidone hepatocarcinogenicity in the rat” (Archives of Toxicology, 2021).
Values joined by “and” are separate entries in the source; they are usually repeats but may differ in a detail not shown here. Equal values may be shown once.

Key:
[1] = test system: CYP4A; assay: Lauric acid hydroxylase assay, 12-hydroxylation (PPARα marker); type: in vivo, rat
Description: (§1) ^14C-labelled lauric acid (55 mCi/mmol) dissolved in ethanol (0.1 mCi/mL; total volume 2.5 mL) was purchased from American Radiolabeled Chemicals. 10 µL of this solution were diluted with methanol to 2 mL. The purity was checked by radio-HPLC. For the enzyme activity determinations 1.21 mL of this solution were treated in the thermomixer at 40 °C and 300 rpm until the ethanol was completely evaporated. The residue was taken up in 550 µL DMSO and checked on the incubation days by radio-HPLC and by liquid scintillation counting (LSC). To this end the just-mentioned solution in DMSO (nominally 8.14 MBq/mL) was 100-fold diluted with methanol, 50 µL of the resultant solution used for the HPLC analysis, 100 µL for the LSC analysis (488,400 dpm/100 µL).
For the determination of the lauric acid hydroxylase activity the liver microsomal fractions (prepared as described in the preceding chapter “Aryl hydrocarbon receptor”) derived from the NVP-treated (and untreated control) male rats were adjusted with TrisHCl pH 7.5–20 mg protein/mL. Obtained samples were measured in duplicates. Controls were heat-denatured samples (15 min at 99 °C in the thermomixer at 450 rpm), zero-time samples (reaction stopped immediately after adding substrate) and buffer controls (TrisHCl pH 7.5, no microsomal protein). 155 µL master mix (100 mM TrisHCl pH 7.5, 10 mM MgCl2, 2 mM 5’AMP-Na2, 5 mM G-6-P, 10 U G-6-P-DH) and 30 µL sample were preincubated for 3 min at 37 °C. Subsequently 10 µL of a 2-mM NADPH solution and 5 µL ^14C-lauric acid (8.14 MBq/mL) were added (lauric acid final concentration in the incubation 100 µM). The reaction was run for 20 min at 37 °C in the thermomixer (450 rpm) and stopped by the addition of 200 µL ice-cold acetone. […]

[2] = test system: rat liver; assay: Liver histology, Oil Red O staining; type: in vivo; details: high dose group (20 ppm)
Description: ORO staining was performed essentially according to Lillie and Ashburn ([1943]), specifically under the following conditions:
Parts of the frozen (− 80 °C) livers from rats treated with 0, 5, 10 or 20 ppm NVP were soaked in tap water and then thoroughly frozen at − 40 °C. Subsequently they were cut at -10 to -15 °C into slices of 12–20 µm and stored in water until starting the staining procedure. The slices were then left for approximately 5 min in 60% isopropanol, subsequently stained for 10–12 min in ORO solution (5 g ORO dissolved in 1 L isopropanol, to this solution added 400 mL H2O, left at room temperature for 24 h and then filtered) and subsequently differentiated by immersing 2–3 times into 60% isopropanol. Afterwards they were left in water until they collected at the surface. Finally the slices were stained for 3 min in hematoxylin solution (1 g hematoxylin, 50 g KAl(SO4)2, 50 g chloral hydrate, 1 g citric acid/L H2O, then for maturation 0.2 g NaIO3/L). Subsequently they were left at least 10 min in water. Finally, the slices were transferred to microscope slides and covered with 40–60 °C warm Kaiser’s glycerol gelatin.

[3] = test system: CYP2E1; assay: Lauric acid hydroxylase assay, 11-hydroxylation; type: in vivo, rat
Description: as §1
For the determination of the lauric acid hydroxylase activity the liver microsomal fractions (prepared as described in the preceding chapter “Aryl hydrocarbon receptor”) derived from the NVP-treated (and untreated control) male rats were adjusted with TrisHCl pH 7.5–20 mg protein/mL. Obtained samples were measured in duplicates. Controls were heat-denatured samples (15 min at 99 °C in the thermomixer at 450 rpm), zero-time samples (reaction stopped immediately after adding substrate) and buffer controls (TrisHCl pH 7.5, no microsomal protein). 155 µL master mix (100 mM TrisHCl pH 7.5, 10 mM MgCl2, 2 mM 5’AMP-Na2, 5 mM G-6-P, 10 U G-6-P-DH) and 30 µL sample were preincubated for 3 min at 37 °C. Subsequently 10 µL of a 2-mM NADPH solution and 5 µL ^14C-lauric acid (8.14 MBq/mL) were added (lauric acid final concentration in the incubation 100 µM). The reaction was run for 20 min at 37 °C in the thermomixer (450 rpm) and stopped by the addition of 200 µL ice-cold acetone. Proteins were sedimented by centrifugation (6000 g, 10 min, 4 °C) and the supernatant used for the analysis by HPLC (system: Agilent 1260 infinity, column: EC250/4 Nucleosil, 120–5 C18, radio detector: Berthold FlowStar LB 513) under the following conditions: Injection volume 50 µL; eluent A: Methanol/acetic acid/water (600/5/400 mL), eluent B: Methanol; gradient: 0–10 min 100% eluent A, 10–20 min 0–100% eluent B, 20–30 min 100% eluent B, 30–40 min 100% eluent A; flow rate: 0.8 mL/min. In order to ascertain the assignment of the peaks to 11-hydroxylauric acid versus 12-hydroxylauric acid the retention times and mass spectra (HPLC-QTOF/MS) of a 12-hydroxylauric acid standard were compared with the lauric acid incubates (parameters of the HPLC-QTOF/MS system: (U)HPLC: Agilent 1200 und 1290; MS instrument: MS324/Agilent/S/N US10318001; radio detector: Raytest/Mirastar Masshunter Data Acquisition B.06.01; ionisation mode: ESI, negative mode).

[4] = test system: CYP2B; assay: PROD assay, liver microsomes (CAR marker); type: in vivo, rat; details: male rats
Description: The alkoxyresorufin dealkylase (AROD) assays were based on the method by Burke et al. ([1994]).
The frozen livers and lungs of the NVP-treated male Wistar rats were thawed and washed with isotonic (0.9%) NaCl solution. The tissues were ice-cooled homogenized (1 g tissue: 3 mL 0.25 M saccharose in 1 mM disodium EDTA, pH 7.4) and centrifuged (9000 g, 15 min, 4 °C). The supernatant fraction was centrifuged (100 000 g, 60 min, 4 °C). The resulting supernatant fraction was used for the palmitoyl-CoA-oxidase assay described further down. The pellet was taken up in 150 mM aqueous KCl solution, recentrifuged (100 000 g, 60 min, 4 °C) and the pellet taken up in 1 mL/g liver or 0.5 mL/g lung resuspension buffer (1 mM GSH, 1 mM disodium EDTA, 4 mM MgCl2, 0.1 M KH2PO4, pH 7.5 and 4% glycerol). Aliquots were stored at − 80 °C.
For determination of the enzyme activities in triplicates, 85 µL master mix (100 mM TrisHCl pH 7.5, 2 mM 5’AMP, 5 mM G-6-P, 10 U G-6-P-DH, 10 mM Dicumarol, 10 mM MgCl2, either 2 µM EROD or 10 µM PROD or 5 µM BROD) was added to 10 µL microsomal fraction (1 mg protein/mL). The reaction was started by the addition of 5 µL 2 mM NADPH (dissolved in 100 mM TrisHCl pH 7.5) followed by incubation at 37 °C for 16 min. The activity was determined by measuring the increase of the fluorescence (excitation at 550 nm, emission at 585 nm) due to resorufin formation compared with resorufin standards, which had been prepared by dissolving tenfold concentrated solutions in DMSO, which were then diluted tenfold in 100 mM TrisHCl pH 7.5.

[5] = test system: rats; design: method as in Klimisch et al. [1997b]; details: ref Klimisch et al. [1997b], cited from earlier work
[6] = test system: rat hepatocytes; assay: MTT assay in cultivated rat hepatocytes; type: cell-based; details: up to 1000 µM
[7] = lauric acid 12-hydroxylation, liver microsomes, 20 ppm NVP, individual animals 19-24
[8] = lauric acid 11-hydroxylation, liver microsomes, 20 ppm NVP, individual animals 19-24

For `C=CN1CCCC1=O` [NVP, N-vinylpyrrolidone], the “Increase of lauric acid 12-hydroxylation vs vehicle control” value ([1]; 20 ppm, not statistically significant) was 1.3 fold, the “ω-hydroxylase (CYP4A-activity), enzyme activity individual” value [1, 7] was 20,495 peak surface/min/mg protein and 20,593 peak surface/min/mg protein and 10,543 peak surface/min/mg protein and 14,545 peak surface/min/mg protein and 15,406 peak surface/min/mg protein and 6779 peak surface/min/mg protein and the “ω-hydroxylase (CYP4A-activity), peak surface” value [1, 7] was 27,314 and 28,341 and 15,814 and 21,818 and 23,109 and 11,088. For the same compound, the “Lipid-staining (oil red O) of centrilobular hepatocellular fatty change” value [2] was “positive for only one male and one female animal”, the “Lauric acid 11-hydroxylation activity” value ([3]; 20 ppm, male rat liver microsomes) was 5149 ± 2010 peak area/min/mg protein and the “Increase of lauric acid 11-hydroxylation vs vehicle control” value ([3]; 20 ppm, statistically not significant) was 1.1 fold. The “ω-1-hydroxylase (CYP2E1-activity), enzyme activity individual” value [3, 8] was 7458 peak surface/min/mg protein and 7295 peak surface/min/mg protein and 3522 peak surface/min/mg protein and 5008 peak surface/min/mg protein and 5216 peak surface/min/mg protein and 2393 peak surface/min/mg protein, the “ω-1-hydroxylase (CYP2E1-activity), peak surface” value [3, 8] was 9940 and 10,040 and 5283 and 7513 and 7824 and 3996 and the “ω-1-hydroxylase (CYP2E1-activity), enzyme activity group (mean ± SD)” value ([3]; lauric acid 11-hydroxylation, liver microsomes, 20 ppm NVP, vehicle 4512 ± 1050) was 5149 ± 2010 peak surface/min/mg protein. For the same compound, the “Liver microsomal PROD activity” value ([4]; 5 ppm) was 12.4 ± 1.9 pmol/min/mg protein, the “Liver microsomal PROD activity” value ([4]; 10 ppm) was 16.5 ± 4.3 pmol/min/mg protein and the “Liver microsomal PROD activity” value ([4]; 20 ppm) was 10.0 ± 2.8 pmol/min/mg protein. For the same compound, the “Change of total non-protein-bound sulfhydryls” value ([5]; Sprague–Dawley rats, inhalation 3 months, 10 ppm) was “increase”, the “Concentration at which erythrocytes, hematocrit and hemoglobin were reduced” value ([5]; rats, inhalation) was 15 ppm and the “Concentration with foci of altered hepatocytes” value ([5]; rats, inhalation) was 5 ppm. The “LOAEC, liver (increased gamma-glutamyl transpeptidase and glutathione)” value ([5]; rats, inhalation) was 5 ppm, the “LOAEC, nasal mucosa (inflammation, olfactory epithelium atrophy, basal cell hyperplasia)” value ([5]; rats, inhalation) was 5 ppm and the “Dose with necrosis of single centrilobular liver cells” value ([5]; subchronic studies in rats and mice) was 45 ppm. The “Cytotoxicity in MTT assay” value [6] was “no cytotoxicity observed”.
